Read-outs that look alike come from different tables or passages of the source.
Assay: Dissolution of monomer components in mesitylene to prepare a coating liquid
Type: physicochemical
Method: In 100 g of mesitylene were dissolved 2.48 g (8 mmol) of trimethyl ester of 1,3,5-adamantanetricarboxylic acid prepared in Example 1 and 6.42 g (12 mmol) of 3,3′-diaminobenzidinetetracyclohexanoimine [N,N′,N″,N′″-tetracyclohexylidene-3,4,3′,4′-biphenyltetramine] prepared in Preparation Example 1 at room temperature in a nitrogen atmosphere, to yield a coating liquid having a monomer concentration of 8.2% by weight. After filtrating through a filter with a pore size of 0.1 μm, the coating liquid was applied to an 8-inch silicon wafer by spin coating. This was heated at 300° C. in a nitrogen atmosphere for 30 minutes and was then heated at 400° C. for further 30 minutes, to form a film. The infrared absorption spectrum of the resulting polymer film was determined. The result is shown in FIG. 1, verifying that the target crosslinked polybenzazole film was formed.
A coating liquid was prepared by the procedure of Example • 7, except using equal amounts of • 1,3,5-adamantanetricarboxylic acid and • 3,3′-diaminobenzidine instead of trimethyl ester of • 1,3,5-adamantanetricarboxylic acid and • N,N′,N″,N′″-tetracyclohexylidene-3,4,3′,4′-biphenyltetramine, respectively. […] The infrared absorption spectrum of the resulting polymer film was determined, verifying that the target crosslinked polybenzazole film was formed.

Compound	solubility in the solvent (mesitylene)	solubility in the solvent (mesitylene) (procedure of Example 7: 8 mmol acid and 12 mmol amine together in 100 g mesitylene, room temperature, nitrogen atmosphere)
O=C(O)C12CC3CC(C(=O)O)(C1)CC(C(=O)O)(C3)C2 [1,3,5-adamantanetricarboxylic acid]	not sufficiently dissolved	
Nc1ccc(-c2ccc(N)c(N)c2)cc1N [3,3′-diaminobenzidine]		not sufficiently dissolved

Reference: patent US7102027B2, “Adamantanetricarboxylic acid derivatives” (Daicel Chemical Industries, Ltd., priority 2003, dated 2006)
